Measured values as given in article PMC9886892, “Imidazolium salts as an alternative for anti-Leishmania drugs: Oxidative and immunomodulatory activities” (Frontiers in Immunology, 2023).
Read-outs that look alike come from different tables or passages of the source.

Tests used:
[1] = tested on: L. amazonensis promastigotes; details: for L. amazonensis mortality in the screening test: 100 µM screening concentration
Procedure: (§1) Subsequently, 0.5 mg/mL of 3-(4,5-dimethylthiazol-2-yl)-2,5-diphenyltetrazolium bromide (MTT, Sigma-Aldrich®, St. Louis, MO, USA) was added and the incubations continued for an additional 4 h at 26 °C. The purple formazan product that was formed by the action of mitochondrial enzymes in living cells was solubilized by the addition of acidic isopropanol, and the absorbance at 570 nm was measured using a microplate reader spectrophotometer EZ Read 400 from Biochrom. […] The 50% inhibitory concentration (IC50) value for each compound was determined. The survival rate was calculated according to the formula: OD in treated group/OD of untreated group x 100. The 50% inhibitory concentration (IC50) value for each compound was determined by nonlinear regression analysis using GraphPad Prism 5.03 software.

[2] = tested on: L. amazonensis promastigotes; set-up: method as in PMID 30077823; details: read-out: IC50 for L. amazonensis promastigotes (previous study); cited from earlier work
[3] = tested on: L. amazonensis promastigotes; test: Mitochondrial membrane potential (rhodamine 123, flow cytometry); type: cell-based, Leishmania (L.) amazonensis; details: IS 2-fold IC50, 6 h; amphotericin B 0.4 µM; hydrogen peroxide 2 mM
Source text: A total of 30,000 events were acquired in the region that corresponded to the parasites. Histograms were build using the CellQuest Pro software (Joseph Trotter, Scripps Research Institute, La Jolla, CA, USA).

in vitro = details: mouse; for CC50 at 48 h: CC50 (CI 95%): concentration of compound that causes 50% of macrophage mortality
[4] = tested on: L. amazonensis promastigotes; test: microbe, parasite or virus in culture; details: Leishmania amazonensis, 48 h
Procedure: as §1

human erythrocytes [5] = details: for RBC50 (CI 95%): concentration of compound that causes 50% of red blood cell hemolysis: 60 min
Procedure: Triton X-100 1% was used as positive control. The hemolytic assay was performed according to the procedure used by ([13]). […] The microplate was incubated at 37°C under agitation (90 rpm) for 60 min. Then, the suspension was centrifuged at 3,000 rpm for 5 min, and the absorbance of the supernatant was measured at 540 nm using a spectrophotometer EZ Read 400 from Biochrom. Triton X-100 1% and PBS were used as positive and negative control, respectively. […] The selectivity index (SI) (CC50 or RBC50/IC50 against L. amazonensis) were determined for each compound.

[6] = tested on: L. amazonensis amastigotes in RAW 264.7 macrophages; test: Intramacrophage anti-amastigote activity; type: cell-based, Leishmania (L.) amazonensis
Procedure: The anti-amastigote assay was performed as previously described ([13]). Macrophages RAW 264.7 cell line (ATCC) were cultured in DMEM plus 10% fetal bovine serum (FBS), penicillin (100 U/mL) and streptomycin (100 µg/mL) until reaching 90% confluence, when were distributed into 96-well microplates at a concentration of 2 x 10^5 cells/well in the presence of DMEM. […] The leishmanicidal activity of macrophages was assessed by determining the number of viable parasites (4 replicates) using a hemocytometer.

[7] = tested on: L. infantum chagasi promastigotes; test: microbe, parasite or virus in culture; details: Leishmania infantum; for IC50: 48 h
Procedure: as §1

[8] = tested on: Macrophages RAW 264.7 cell line
human erythrocytes [9] = details: cited from earlier work
[10] = tested on: Macrophages RAW 264.7 cell line; details: read-out: CC50 towards macrophages (previous study); cited from earlier work
[11] = tested on: L. infantum chagasi promastigotes; details: read-out: IC50 (CI 95%): concentration of compound that causes 50% of L. infantum chagasi promastigotes mortality, 48 h, MTT
Procedure: as §1

[12] = tested on: L. amazonensis promastigotes; test: Cell membrane integrity (propidium iodide, flow cytometry); type: cell-based, Leishmania (L.) amazonensis; details: 1.8 µM (IC50), 48 h
Procedure: After 48 h at 26°C, the parasites were harvested and washed twice with PBS, resuspended and incubated with 100 μL of propidium iodide (PI – Sigma–Aldrich) 50 μg/mL at 26°C for 15 min. Following, each sample was completed with 400 μL of PBS and a total of 20,000 events were acquired and analyzed on BD FACScalibur flow cytometer and CellQuest Pro software. PI fluorescence intensity was quantified as the percentage of the fluorescence compared with untreated promastigotes ([30]). Results were obtained from two independent experiments performed in triplicate.

[13] = tested on: L. amazonensis promastigotes; test: Detection of reactive oxygen species production (DCF-DA, flow cytometry); type: cell-based, Leishmania (L.) amazonensis; details: IS 2-fold IC50, 6 h; amphotericin B 0.4 µM; hydrogen peroxide 2 mM
Procedure: ROS generation was quantified using the dye 2′,7′-dichlorofluorescein diacetate (DCF-DA, Sigma-Aldrich) and flow cytometer analysis ([13], [30], [31]). […] Then, cells were washed with PBS and incubated with 0.5 mL of 10 µM DCF-DA for 30 min at room temperature. After being washed with PBS, cells were resuspended in 0.5 mL PBS and analysed using a BD FACSCalibur (Becton–Dickinson, Rutherford, NJ, USA) flow cytometer and CellQuest Pro software (Joseph Trotter, Scripps Research Institute, La Jolla, CA, USA) using the blue argon-ion 488 nm laser with the FL1 filter channel. A total of 30,000 events were acquired in the region that corresponded to living parasite.

[14] = read-out: mortality of L. amazonensis promastigotes, 5 µM, 48 h
[15] = Leishmania amazonensis, RAW264.7, 48 h, read-out: IC50 (CI 95%): concentration of compound that causes 50% of L. amazonensis amastigotes mortality, infected RAW 264.7 macrophages, 48 h
[16] = read-out: IC50 (CI 95%): concentration of compound that causes 50% of L. infantum chagasi promastigotes mortality, promastigotes, 48 h, MTT

| Compound | L. amazonensis mortality in the screening test ([1]; 48 h) | mitochondrial membrane potential (ΔΨm) alteration [3] | IC50 [1] [µM] | mortality at 5 µM [4, 14] [%] | SI: selectivity index, ratio of CC50 for RBC hemolysis/IC50 for L. amazonensis amastigotes (human erythrocytes [5]) | SI: selectivity index, ratio of CC50 for RBC hemolysis/IC50 for L. amazonensis promastigotes (human erythrocytes [5]) | IC50 [6, 15] [µM] | SI: selectivity index, ratio of CC50 for macrophage/IC50 for L. amazonensis amastigotes [8] | SI: selectivity index, ratio of CC50 for macrophage/IC50 for L. amazonensis promastigotes [8] | IC50 [11] [µM] | also measured |
| --- | --- | --- | --- | --- | --- | --- | --- | --- | --- | --- | --- |
| CCCCCCCCCCCCCCCC[n+]1ccccc1.O.[Cl-] [C16PyrCl, 1-hexadecylpyridinium chloride monohydrate, reference compound] | 100% |  |  |  |  |  |  |  |  |  |  |
| CCCCCCCCCCCCCCCCn1cc[n+](C)c1 [C16MImNTf2, 1-hexadecyl-3-methylimidazolium bis(trifluoromethylsulfonyl)imide] |  |  |  |  |  |  |  |  |  |  | IC50 [2]: 1.64 µM |
| CCCCCCCCCCn1cc[n+](CCCCCCCCCC)c1C.[Cl-] [(C10)2MImCl, 1,3-Didecyl-2-methylimidazolium chloride] | 100% | significant ΔΨm depolarization | 1.9 | 97 | 105 | 11 | 0.2 | 82 | 8.6 |  | viability at 48 h (in vitro): 94%; CC50 at 48 h (in vitro; RAW cells, 48 h, MTT): 16.4 µM; RBC50 (CI 95%): concentration of compound that causes 50% of red blood cell hemolysis (human erythrocytes [5]; human red blood cells, 37°C): 20.9 (20-21.9) µM; IC50 [7, 16]: 16.5 µM |
| CCCCCCCCCCCCCCCCn1cc[n+](C)c1.CS(=O)(=O)[O-] [C16MImMeS, 1-hexadecyl-3-methylimidazolium methanesulfonate] |  |  |  |  |  |  |  |  |  | 10.8 | RBC50 erythrocytes (previous study) (human erythrocytes [9]): 36.9 µM; CC50 [10]: 11.5 µM; IC50 [2]: 0.75 µM |
| CCCCCCCCCCCCCCCCn1ccnc1 [C16Im, 1-hexadecylimidazole] | 100% |  |  |  | > 500 | > 6.8 | 0.2 | 275 | 3.8 |  | CC50 at 48 h (in vitro): 54.9 µM; concentration causing significant parasite mortality ([1]; L. amazonensis promastigotes, 48 h): ≥ 10 µM; RBC50 (CI 95%): concentration of compound that causes 50% of red blood cell hemolysis (human erythrocytes [5]; human): > 100 µM; IC50 [7, 16]: 8.3 µM |
| CCCCCCCCCCCCCCCCn1c(C)c(C)[n+](C)c1C.[Cl-] [C16M4ImCl, 1-hexadecyl-2,3,4,5-tetramethylimidazolium chloride] | 100% | significant ΔΨm depolarization |  |  | 78 | 8.7 |  | 89 | 10 |  | CC50 (in vitro): 17.8 µM; viability (in vitro): 90%; IC50 ([4]; read-out: IC50 (CI 95%): concentration of compound that causes 50% of L. amazonensis promastigotes mortality): 1.8 µM; mortality at 5 µM ([4]; read-out: mortality of L. amazonensis promastigotes): 95%; L. amazonensis integrity (panoptic stain) [12]: total lysis of the parasites; RBC50 (CI 95%): concentration of compound that causes 50% of red blood cell hemolysis (human erythrocytes [5]; human red blood cells, 37°C): 15.6 (14.5-16.8) µM; IC50 ([6]; Leishmania amazonensis, RAW264.7, 48 h, read-out: IC50 (CI 95%): concentration of compound that causes 50% of L. amazonensis amastigotes mortality): 0.2 µM; IC50 ([7]; read-out: IC50 (CI 95%): concentration of compound that causes 50% of L. infantum chagasi promastigotes mortality): 14.9 µM |
| CCCCCCCCCCCCCCCCn1cc[n+](C)c1 [C16MImPF6, 1-hexadecyl-3-methylimidazolium hexafluorophosphate] | 100% | significant ΔΨm depolarization | 6.9 | 37 | 82.7 | 3.6 | 0.3 | 56 | 2.4 | 26.3 | CC50 at 48 h (in vitro): 16.8 µM; RBC50 (CI 95%): concentration of compound that causes 50% of red blood cell hemolysis (human erythrocytes [5]; human): 24.8 (22.9-26.8) µM |
| CCCCCCCCCCCCCCCCn1cc[n+](C)c1 [C16MImCl, 1-hexadecyl-3-methylimidazolium chloride] |  |  |  |  |  |  |  |  |  | 9.9 | IC50 [2]: 1.23 µM |
| C[C@@H]1[C@H](O)[C@@H](C)/C=C/C=C/C=C/C=C/C=C/C=C/C=C/[C@H](O[C@@H]2O[C@H](C)[C@@H](O)[C@H](N)[C@@H]2O)C[C@@H]2O[C@](O)(C[C@@H](O)C[C@@H](O)[C@H](O)CC[C@@H](O)C[C@@H](O)CC(=O)O[C@H]1C)C[C@H](O)[C@H]2C(=O)O [amphotericin B, reference compound] |  | mitochondrial depolarization | 0.4 | 100 |  |  |  |  |  |  | ROS production [13]: significant elevation in ROS production; mortality at 5 µM ([7]; read-out: mortality of L. infantum chagasi promastigotes): 100% |
| CCCCCCCCCCCCCCCCn1cc[n+](C)c1.[Br-] [C16MImBr, 1-hexadecyl-3-methylimidazolium bromide] | 100% | significant ΔΨm depolarization | 6 |  | 114 | 3.8 |  | 80 | 2.7 | 29.7 | CC50 at 48 h (in vitro; RAW cells, 48 h, MTT): 16 µM; mortality of L. amazonensis promastigotes ([1]; 5 µM, 48 h): 42%; RBC50 (CI 95%): concentration of compound that causes 50% of red blood cell hemolysis (human erythrocytes [5]; human red blood cells, 37°C): 22.8 (21.7-24) µM; IC50 ([6]; read-out: IC50 (CI 95%): concentration of compound that causes 50% of L. amazonensis amastigotes mortality, infected RAW 264.7 macrophages, 48 h): 0.2 µM |
| OO [H2O2, hydrogen peroxide, reference compound] |  | mitochondrial depolarization |  |  |  |  |  |  |  |  | ROS production [13]: significant elevation in ROS production |
| CCCCCCCCCCn1cc[n+](C)c1.CS(=O)(=O)[O-] [C10MImMeS, 1-decyl-3-methylimidazolium methanesulfonate] | 100% | ΔΨm hyperpolarization | 11.6 | 60 |  | > 8.6 | 0.3 | 256 | 6.6 | > 100 | viability at 48 h (in vitro): 89%; CC50 at 48 h (in vitro; RAW cells, 48 h, MTT): 76.9 µM; concentration up to which no significant hemolysis (human erythrocytes [5]; human erythrocytes): up to 40 µM; RBC50 (CI 95%): concentration of compound that causes 50% of red blood cell hemolysis (human erythrocytes [5]; human red blood cells, 37°C): > 100 µM; concentration up to which more than 90% of the macrophages kept alive ([8]; mouse, 48 h): up to 50 µM |
| CCCCCCCCCCn1cc[n+](C)c1 [C10MImCl, 1-decyl-3-methylimidazolium chloride] |  |  |  |  |  |  |  |  |  |  | IC50 [2]: 2.31 µM; IC50 [7, 16]: 115 µM |
| CCCCn1cc[n+](C)c1.CS(=O)(=O)[O-] [C4MImMeS, 1-Butyl-3-methylimidazolium methanesulfonate] | without activity |  |  |  |  |  |  |  |  |  |  |
| CCCCCCCCCCCCCCCCn1cc[n+](C)c1C.[Cl-] [C16M2ImCl, 1-hexadecyl-2,3-dimethylimidazolium chloride] | 100% | significant ΔΨm depolarization | 4.1 | 85 | 108 | 5.3 | 0.2 | 99 | 4.8 |  | CC50 at 48 h (in vitro; RAW cells, 48 h, MTT): 19.8 µM; RBC50 (CI 95%): concentration of compound that causes 50% of red blood cell hemolysis (human erythrocytes [5]; human): 21.6 (20.8-22.5) µM; IC50 [7, 16]: 15.4 µM |
